We go through 29 compounds from patent US9718808B2, “Inhibitors of the renal outer medullary potassium channel” (Merck Sharp & Dohme Corp., priority 2014, dated 2017).

The structures appear in SMILES notation.

The test concerns the target ROMK (Kir1.1) channel (Homo sapiens (Human), UniProt P48048). Nature of the test: Thallium Flux Assay. The class given is cell-based. How it is done: A Thallium Flux Assay was performed on each of the final product compounds of the Examples. This assay has been described previously; see, e.g., PCT Published Application WO 2013/062900.

As a reminder, the IC50 is the concentration that inhibits the measured activity by half.

Chain of ROMK (Kir1.1) channel (P48048 whole entry): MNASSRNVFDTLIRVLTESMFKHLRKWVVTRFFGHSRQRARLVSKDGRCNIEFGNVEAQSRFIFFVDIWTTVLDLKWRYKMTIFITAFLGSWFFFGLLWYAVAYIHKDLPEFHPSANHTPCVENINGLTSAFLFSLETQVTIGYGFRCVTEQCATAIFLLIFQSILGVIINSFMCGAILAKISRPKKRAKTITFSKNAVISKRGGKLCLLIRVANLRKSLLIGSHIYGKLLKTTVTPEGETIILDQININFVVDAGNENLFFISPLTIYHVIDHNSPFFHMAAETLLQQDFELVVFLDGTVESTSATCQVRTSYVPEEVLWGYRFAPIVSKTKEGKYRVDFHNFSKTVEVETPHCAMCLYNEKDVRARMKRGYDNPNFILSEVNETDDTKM

Compound `CC1=C(N2CC[C@]3(CC[C@@H](NCc4ccc(-n5cnnn5)nn4)CC3)C2=O)COC1=O` [Example 1, (5r,8r)-2-(4-methyl-5-oxo-2,5-dihydrofuran-3-yl)-8-({[6-(1H-tetrazol-1-yl)pyridazin-3-yl]methyl}amino)-2-azaspiro[4.5]decan-1-one] gave a half-inhibitory concentration (IC50) of 10 nM. The value for `CC1=C(N2CC[C@]3(CC[C@@H](NCCc4ccc5c(c4)COC5=O)CC3)C2=O)COC1=O` [Example 2, (5r,8r)-2-(4-methyl-5-oxo-2,5-dihydrofuran-3-yl)-8-{[2-(1-oxo-1,3-dihydro-2-benzofuran-5-yl)ethyl]amino}-2-azaspiro[4.5]decan-1-one] was 44 nM; that for `CC1=C(N2CC[C@]3(CC[C@H](NCCc4ccc5c(c4)COC5=O)CC3)C2=O)COC1=O` [Example 3, (5s,8s)-2-(4-methyl-5-oxo-2,5-dihydrofuran-3-yl)-8-{[2-(1-oxo-1,3-dihydro-2-benzofuran-5-yl)ethyl]amino}-2-azaspiro[4.5]decan-1-one] was 200 nM. The value for `CC1=C(N2CC[C@]3(CC[C@H](NCc4ccc5c(c4C)COC5=O)CC3)C2=O)COC1=O` [Example 4, (5s,8s)-8-(((4-methyl-1-oxo-1,3-dihydroisobenzofuran-5-yl)methyl)amino)-2-(4-methyl-5-oxo-2,5-dihydrofuran-3-yl)-2-azaspiro[4.5]decan-1-one] was 350 nM; that for `CC1=C(N2CC[C@]3(CC[C@@H](NCc4ccc(-n5cnnn5)nc4)CC3)C2=O)COC1=O` [Example 5, (5r,8r)-2-(4-methyl-5-oxo-2,5-dihydrofuran-3-yl)-8-({[6-(1H-tetrazol-1-yl)pyridin-3-yl]methyl}amino)-2-azaspiro[4.5]decan-1-one] was 16 nM; that for `CC1=C(N2CC[C@]3(CC[C@H](NCc4ccc(-n5cnnn5)nc4)CC3)C2=O)COC1=O` [Example 6, (5s,8s)-2-(4-methyl-5-oxo-2,5-dihydrofuran-3-yl)-8-({[6-(1H-tetrazol-1-yl)pyridin-3-yl]methyl}amino)-2-azaspiro[4.5]decan-1-one] was 450 nM.

Take `CC1=C(N2CC[C@]3(CC[C@H](NCc4ccc(-n5cnnn5)cn4)CC3)C2=O)COC1=O` [Example 7A, (5s,8s)-2-(4-methyl-5-oxo-2,5-dihydrofuran-3-yl)-8-({[5-(1H-tetrazol-1-yl)pyridin-2-yl]methyl}amino)-2-azaspiro[4.5]decan-1-one]: the half-maximal inhibitory concentration (IC50) worked out at 24 nM. Regarding `CC1=C(N2CC[C@]3(CC[C@@H](NCc4ccc(-n5cnnn5)cn4)CC3)C2=O)COC1=O` [Example 7B, (5r,8r)-2-(4-methyl-5-oxo-2,5-dihydrofuran-3-yl)-8-({[5-(1H-tetrazol-1-yl)pyridin-2-yl]methyl}amino)-2-azaspiro[4.5]decan-1-one], the IC50 came to 710 nM. The value for `CC1=C(N2CC[C@]3(CC[C@@H](N[C@@H](C)c4ccc(-n5cnnn5)nc4)CC3)C2=O)COC1=O` [Example 9, (5S,8r)-2-(4-methyl-5-oxo-2,5-dihydrofuran-3-yl)-8-({(1S)-1-[6-(1H-tetrazol-1-yl)pyridin-3-yl]ethyl}amino)-2-azaspiro[4.5]decan-1-one] was 34 nM; that for `CC1=C(N2CC[C@]3(CC[C@@H](N[C@H](C)c4ccc(-n5cnnn5)nc4)CC3)C2=O)COC1=O` [Example 10, (5R,8r)-8-(((R)-1-(6-(1H-tetrazol-1-yl)pyridin-3-yl)ethyl)amino)-2-(4-methyl-5-oxo-2,5-dihydrofuran-3-yl)-2-azaspiro[4.5]decan-1-one] was 18 nM. Then `CC1=C(N2CC[C@]3(CC[C@@H](NCc4ccc5c(c4)Cn4nnnc4-5)CC3)C2=O)COC1=O` [Example 11, (5r,8r)-2-(4-methyl-5-oxo-2,5-dihydrofuran-3-yl)-8-[(5H-tetrazolo[5,1-a]isoindol-7-ylmethyl)amino]-2-azaspiro[4.5]decan-1-one], with 110 nM. Then `CC1=C(N2CC[C@]3(CC[C@@H](NCc4nnc(-n5cnnn5)cc4C)CC3)C2=O)COC1=O` [Example 12, (5r,8r)-2-(4-methyl-5-oxo-2,5-dihydrofuran-3-yl)-8-({[4-methyl-6-(1H-tetrazol-1-yl)pyridazin-3-yl]methyl}amino)-2-azaspiro[4.5]decan-1-one], with 8.3 nM. The compound `CC1=C(N2CC[C@]3(CC[C@@H](NCc4ncc(-n5cnnn5)nc4C)CC3)C2=O)COC1=O` [Example 14, (5r,8r)-2-(4-methyl-5-oxo-2,5-dihydrofuran-3-yl)-8-({[3-methyl-5-(1H-tetrazol-1-yl)pyrazin-2-yl]methyl}amino)-2-azaspiro[4.5]decan-1-one] registered a 50% inhibitory concentration (IC50) of 30 nM. Then `CC1=C(N2CC[C@]3(CC[C@@H](N[C@H](C)c4ccc(-n5cnnn5)nn4)CC3)C2=O)COC1=O` [Example 15, (5R,8r)-2-(4-methyl-5-oxo-2,5-dihydrofuran-3-yl)-8-({(1R)-1-[6-(1H-tetrazol-1-yl)pyridazin-3-yl]ethyl}amino)-2-azaspiro[4.5]decan-1-one], with 92 nM; and `CC1=C(N2CC[C@]3(CC[C@H](N[C@H](C)c4ccc5c(c4)CCc4nnnn4-5)CC3)C2=O)COC1=O` [Example 17, (5S,8s)-8-{[(1R)-1-(4,5-dihydrotetrazolo[1,5-a]quinolin-7-yl)ethyl]amino}-2-(4-methyl-5-oxo-2,5-dihydrofuran-3-yl)-2-azaspiro[4.5]decan-1-one], with 340 nM; and `CC1=C(N2CC[C@]3(CC[C@@H](N[C@H](C)c4ccc5c(c4)CCc4nnnn4-5)CC3)C2=O)COC1=O` [Example 18, (5R,8r)-8-{[(1R)-1-(4,5-dihydrotetrazolo[1,5-a]quinolin-7-yl)ethyl]amino}-2-(4-methyl-5-oxo-2,5-dihydrofuran-3-yl)-2-azaspiro[4.5]decan-1-one], with 330 nM.

`CC1=C(N2CC[C@]3(CC[C@@H](N[C@@H](C)c4ccc5c(c4)CCc4nnnn4-5)CC3)C2=O)COC1=O` [Example 21, (5S,8r)-8-{[(1S)-1-(4,5-dihydrotetrazolo[1,5-a]quinolin-7-yl)ethyl]amino}-2-(4-methyl-5-oxo-2,5-dihydrofuran-3-yl)-2-azaspiro[4.5]decan-1-one] had an IC50 of 44 nM. On to `C[C@H]1C[C@]2(CC[C@H](NCc3ccc(-n4cnnn4)nc3)CC2)C(=O)N1C1=CC(=O)OC1` [Example 22, (3S,5s,8R)-3-methyl-2-(5-oxo-2,5-dihydrofuran-3-yl)-8-({[6-(1H-tetrazol-1-yl)pyridin-3-yl]methyl}amino)-2-azaspiro[4.5]decan-1-one], for which the midpoint of inhibition, the IC50, lay at 130 nM. Then `C[C@@H]1C[C@]2(CC[C@@H](NCc3ccc(-n4cnnn4)nc3)CC2)C(=O)N1C1=CC(=O)OC1` [Example 23, (3R,5r,8R)-3-methyl-2-(5-oxo-2,5-dihydrofuran-3-yl)-8-({[6-(1H-tetrazol-1-yl)pyridin-3-yl]methyl}amino)-2-azaspiro[4.5]decan-1-one], with 720 nM; and `CC1=C(N2CC[C@]3(CC[C@@H](N[C@H](C)c4cnc(-n5cnnn5)cn4)CC3)C2=O)COC1=O` [Example 24, (5R,8r)-2-(4-methyl-5-oxo-2,5-dihydrofuran-3-yl)-8-({(1R)-1-[5-(1H-tetrazol-1-yl)pyrazin-2-yl]ethyl}amino)-2-azaspiro[4.5]decan-1-one], with 120 nM. Then `C[C@@H]1C[C@]2(CC[C@H](NCc3cnc(-n4cnnn4)cn3)CC2)C(=O)N1C1=CC(=O)OC1` [Example 26, (3R,5s,8S)-3-methyl-2-(5-oxo-2,5-dihydrofuran-3-yl)-8-({[5-(1H-tetrazol-1-yl)pyrazin-2-yl]methyl}amino)-2-azaspiro[4.5]decan-1-one], with 190 nM; and `C[C@@H]1C[C@]2(CC[C@H](NCc3ccc(-n4cnnn4)nc3)CC2)C(=O)N1C1=CC(=O)OC1` [Example 27, (3R,5s,8S)-3-methyl-2-(5-oxo-2,5-dihydrofuran-3-yl)-8-({[6-(1H-tetrazol-1-yl)pyridin-3-yl]methyl}amino)-2-azaspiro[4.5]decan-1-one], with 38 nM.

`C[C@H]1C[C@]2(CC[C@H](NCc3cnc(-n4cnnn4)cn3)CC2)C(=O)N1C1=CC(=O)OC1` [Example 28, (3S,5s,8R)-3-methyl-2-(5-oxo-2,5-dihydrofuran-3-yl)-8-({[5-(1H-tetrazol-1-yl)pyrazin-2-yl]methyl}amino)-2-azaspiro[4.5]decan-1-one] displayed an IC50 of 250 nM. The value for `CC1=C(N2CC[C@]3(CC[C@@H](N[C@@H](C)c4ccc(-n5cnnn5)cn4)CC3)C2=O)COC1=O` [Example 29, (5S,8r)-2-(4-methyl-5-oxo-2,5-dihydrofuran-3-yl)-8-({(1S)-1-[5-(1H-tetrazol-1-yl)pyridin-2-yl]ethyl}amino)-2-azaspiro[4.5]decan-1-one] was 20 nM; that for `CC1=C(N2CC[C@]3(CC[C@@H](N[C@H](C)c4ccc5c(c4)Cn4nnnc4-5)CC3)C2=O)COC1=O` [Example 30, (5R,8r)-2-(4-methyl-5-oxo-2,5-dihydrofuran-3-yl)-8-{[(1R)-1-(5H-tetrazolo[5,1-a]isoindol-7-yl)ethyl]amino}-2-azaspiro[4.5]decan-1-one] was 150 nM. Then `CC1=C(N2CC[C@]3(CC[C@@H](N[C@@H](C)c4ccc5c(c4)Cn4nnnc4-5)CC3)C2=O)COC1=O` [Example 31, (5S,8r)-2-(4-methyl-5-oxo-2,5-dihydrofuran-3-yl)-8-{[(1S)-1-(5H-tetrazolo[5,1-a]isoindol-7-yl)ethyl]amino}-2-azaspiro[4.5]decan-1-one], with 260 nM; and `CC1=C(N2CC[C@]3(CC[C@@H](N[C@H](C)c4ccc(-n5cnnn5)cn4)CC3)C2=O)COC1=O` [Example 32], with 110 nM; and `CC1=C(N2CC[C@]3(CC[C@H](NCc4ccc(-n5ncnn5)cc4)CC3)C2=O)COC1=O` [Example 40, (5s,8s)-2-(4-methyl-5-oxo-2,5-dihydrofuran-3-yl)-8-{[4-(2H-tetrazol-2-yl)benzyl]amino}-2-azaspiro[4.5]decan-1-one], with 110 nM.

With `CC1=C(N2CC[C@]3(CC[C@@H](NCc4ccc(-n5ncnn5)cc4)CC3)C2=O)COC1=O` [Example 41, (5r,8r)-2-(4-methyl-5-oxo-2,5-dihydrofuran-3-yl)-8-{[4-(2H-tetrazol-2-yl)benzyl]amino}-2-azaspiro[4.5]decan-1-one], half-maximal inhibition (IC50) required 3.3 nM.
